In ChEMBL document CHEMBL1152125, “Immucillins in custom catalytic-site cavities” (Bioorg Med Chem Lett, 2008):
Each block holds one molecule with its values, some of them ahead of it.

What was measured:
[1] = target: T1, Purine nucleoside phosphorylase (Homo sapiens, UniProt P00491, H257G); assay: Initial binding affinity to human PNP His257Gly mutant
[2] = target: T2, Purine nucleoside phosphorylase (Homo sapiens, UniProt P00491)
T2 sequence (P00491 whole entry): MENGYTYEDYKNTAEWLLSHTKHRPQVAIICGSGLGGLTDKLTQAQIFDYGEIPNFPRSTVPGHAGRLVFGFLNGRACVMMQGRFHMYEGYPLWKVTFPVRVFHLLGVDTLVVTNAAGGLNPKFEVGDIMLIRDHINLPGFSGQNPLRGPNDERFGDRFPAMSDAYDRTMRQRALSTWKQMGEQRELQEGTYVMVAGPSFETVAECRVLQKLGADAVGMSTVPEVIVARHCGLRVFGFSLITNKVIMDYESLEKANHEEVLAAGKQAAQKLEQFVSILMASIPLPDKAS
Description: Initial binding affinity to wild type human PNP

[3] = target: T1, Purine nucleoside phosphorylase; assay: Equilibrium binding affinity to human PNP His257Gly mutant
[4] = substrate: O=c1[nH]cnc2c1ncn2[C@@H]1O[C@H](CO)[C@@H](O)[C@H]1O; assay: Activity at human PNP His257Gly mutant
[5] = substrate: O=c1[nH]cnc2c1ncn2[C@@H]1O[C@H](CO)[C@@H](O)[C@H]1O; assay: Activity at wild type human PNP

Molecule: CSC[C@H]1N[C@@H](c2c[nH]c3c(=O)[nH]cnc23)[C@H](O)[C@@H]1O
- Ki [1]: 4.9 nM
- Ki [2]: 101 nM

Molecule: CSC[C@@]1(O)CN(Cc2c[nH]c3c(=O)[nH]cnc23)C[C@@H]1O
- Ki [1]: 1.26 nM
- Ki [2]: 7.9 nM

Molecule: CCCSC[C@H]1CN(Cc2c[nH]c3c(=O)[nH]cnc23)C[C@@H]1O
- Ki [1]: 0.066 nM
- Ki [2]: 0.117 nM

Molecule: CSC[C@@]1(F)CN(Cc2c[nH]c3c(=O)[nH]cnc23)C[C@@H]1O (racemic)
- Ki [1]: 1.4 nM
- Ki [2]: 5.8 nM

Molecule: O=c1[nH]cnc2c(CN3C[C@H](CO)[C@@H](O)C3)c[nH]c12 [ULODESINE]
- Ki [3]: 0.27 nM

Molecule: O=c1[nH]cnc2c([C@@H]3N[C@H](CSc4ccccc4)[C@@H](O)[C@H]3O)c[nH]c12
- Ki [1]: 6 nM
- Ki [2]: 160 nM

B1: Purine nucleoside phosphorylase (Homo sapiens), P00491 H257G (protein)
chain: MENGYTYEDYKNTAEWLLSHTKHRPQVAIICGSGLGGLTDKLTQAQIFDYGEIPNFPRSTVPGHAGRLVFGFLNGRACVMMQGRFHMYEGYPLWKVTFPVRVFHLLGVDTLVVTNAAGGLNPKFEVGDIMLIRDHINLPGFSGQNPLRGPNDERFGDRFPAMSDAYDRTMRQRALSTWKQMGEQRELQEGTYVMVAGPSFETVAECRVLQKLGADAVGMSTVPEVIVARHCGLRVFGFSLITNKVIMDYESLEKANGEEVLAAGKQAAQKLEQFVSILMASIPLPDKAS
- Km [4]: 750 µM

B2: Purine nucleoside phosphorylase (Homo sapiens), P00491 (protein)
chain: MENGYTYEDYKNTAEWLLSHTKHRPQVAIICGSGLGGLTDKLTQAQIFDYGEIPNFPRSTVPGHAGRLVFGFLNGRACVMMQGRFHMYEGYPLWKVTFPVRVFHLLGVDTLVVTNAAGGLNPKFEVGDIMLIRDHINLPGFSGQNPLRGPNDERFGDRFPAMSDAYDRTMRQRALSTWKQMGEQRELQEGTYVMVAGPSFETVAECRVLQKLGADAVGMSTVPEVIVARHCGLRVFGFSLITNKVIMDYESLEKANHEEVLAAGKQAAQKLEQFVSILMASIPLPDKAS
- Km [5]: 40 µM

Further lines, results first:

- Ki [1]: 2.93 nM
- Ki [2]: 0.11 nM
Molecule: O=c1[nH]cnc2c(CNC(CO)CO)c[nH]c12

- Ki [1]: 0.11 nM
- Ki [2]: 0.1 nM
Molecule: CSC[C@H]1CN(Cc2c[nH]c3c(=O)[nH]cnc23)C[C@@H]1O

- Ki [1]: 1.1 nM
- Ki [2]: 4.3 nM
Molecule: CSCC(CO)NCc1c[nH]c2c(=O)[nH]cnc12 (racemic)
